According to ChEMBL document CHEMBL1146979, “Structure-activity relationship of thiopyrimidines as mGluR5 antagonists” (Bioorg Med Chem Lett, 2006):

Assays:
[1] = target: Metabotropic glutamate receptor 7 (Homo sapiens) (UniProt Q14831); assay: Activity against mGluR7
[2] = target: Metabotropic glutamate receptor 4 (Homo sapiens) (UniProt Q14833); assay: Activity against mGluR4
[3] = target: Metabotropic glutamate receptor 1 (Homo sapiens) (UniProt Q13255); assay: Activity against mGluR1
[4] = target: Metabotropic glutamate receptor 6 (Homo sapiens) (UniProt O15303); assay: Activity against mGluR6
[5] = target: Metabotropic glutamate receptor 5 (Homo sapiens, UniProt P41594); assay: Inhibition of glutamate-induced calcium influx in human mGluR5d by FLIPR; assay type: functional
[6] = target: Metabotropic glutamate receptor 8 (Homo sapiens) (UniProt O00222); assay: Activity against mGluR8
[7] = target: Metabotropic glutamate receptor 3 (Homo sapiens) (UniProt Q14832); assay: Activity against mGluR3
[8] = target: Metabotropic glutamate receptor 2 (Homo sapiens) (UniProt Q14416); assay: Activity against mGluR2
[9] = Clearance in human liver microsomes; assay type: ADME, Microsome
[10] = Clearance in rat liver microsomes; assay type: ADME, Microsome

Metabotropic glutamate receptor 5, sequence (P41594 whole entry): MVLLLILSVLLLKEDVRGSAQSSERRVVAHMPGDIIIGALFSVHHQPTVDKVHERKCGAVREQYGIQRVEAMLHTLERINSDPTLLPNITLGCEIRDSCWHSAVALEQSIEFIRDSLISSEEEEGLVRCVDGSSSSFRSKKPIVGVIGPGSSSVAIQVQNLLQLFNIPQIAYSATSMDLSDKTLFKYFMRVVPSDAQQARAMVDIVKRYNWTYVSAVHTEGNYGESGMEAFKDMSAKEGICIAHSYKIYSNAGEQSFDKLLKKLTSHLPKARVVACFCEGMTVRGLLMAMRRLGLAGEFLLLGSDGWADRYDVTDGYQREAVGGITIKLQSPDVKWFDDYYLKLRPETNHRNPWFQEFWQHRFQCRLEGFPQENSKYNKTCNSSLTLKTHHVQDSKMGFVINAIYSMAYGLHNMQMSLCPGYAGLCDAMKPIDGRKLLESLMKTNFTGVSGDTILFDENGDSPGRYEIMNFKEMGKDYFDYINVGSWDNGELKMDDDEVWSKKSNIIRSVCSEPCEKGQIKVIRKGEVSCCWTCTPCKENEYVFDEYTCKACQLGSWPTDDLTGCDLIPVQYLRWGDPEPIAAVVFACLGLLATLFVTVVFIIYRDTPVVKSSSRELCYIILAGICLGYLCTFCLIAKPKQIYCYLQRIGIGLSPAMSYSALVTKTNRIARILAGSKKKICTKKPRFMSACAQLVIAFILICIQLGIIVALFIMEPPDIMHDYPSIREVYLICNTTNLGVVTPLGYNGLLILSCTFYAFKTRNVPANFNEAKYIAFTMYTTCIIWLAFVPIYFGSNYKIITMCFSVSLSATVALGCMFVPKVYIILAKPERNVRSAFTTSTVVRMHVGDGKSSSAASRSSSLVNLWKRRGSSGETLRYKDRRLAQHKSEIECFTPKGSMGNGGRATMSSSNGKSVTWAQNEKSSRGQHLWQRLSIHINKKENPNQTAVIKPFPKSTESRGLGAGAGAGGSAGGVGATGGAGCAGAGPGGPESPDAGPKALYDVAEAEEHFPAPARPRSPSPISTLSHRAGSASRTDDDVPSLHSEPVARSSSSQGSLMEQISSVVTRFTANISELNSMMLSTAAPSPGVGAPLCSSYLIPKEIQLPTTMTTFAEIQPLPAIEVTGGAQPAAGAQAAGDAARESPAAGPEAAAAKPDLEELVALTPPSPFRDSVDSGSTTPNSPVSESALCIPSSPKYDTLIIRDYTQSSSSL
Metabotropic glutamate receptor 2 (Homo sapiens), sequence (Q14416 19-872 limits assumed): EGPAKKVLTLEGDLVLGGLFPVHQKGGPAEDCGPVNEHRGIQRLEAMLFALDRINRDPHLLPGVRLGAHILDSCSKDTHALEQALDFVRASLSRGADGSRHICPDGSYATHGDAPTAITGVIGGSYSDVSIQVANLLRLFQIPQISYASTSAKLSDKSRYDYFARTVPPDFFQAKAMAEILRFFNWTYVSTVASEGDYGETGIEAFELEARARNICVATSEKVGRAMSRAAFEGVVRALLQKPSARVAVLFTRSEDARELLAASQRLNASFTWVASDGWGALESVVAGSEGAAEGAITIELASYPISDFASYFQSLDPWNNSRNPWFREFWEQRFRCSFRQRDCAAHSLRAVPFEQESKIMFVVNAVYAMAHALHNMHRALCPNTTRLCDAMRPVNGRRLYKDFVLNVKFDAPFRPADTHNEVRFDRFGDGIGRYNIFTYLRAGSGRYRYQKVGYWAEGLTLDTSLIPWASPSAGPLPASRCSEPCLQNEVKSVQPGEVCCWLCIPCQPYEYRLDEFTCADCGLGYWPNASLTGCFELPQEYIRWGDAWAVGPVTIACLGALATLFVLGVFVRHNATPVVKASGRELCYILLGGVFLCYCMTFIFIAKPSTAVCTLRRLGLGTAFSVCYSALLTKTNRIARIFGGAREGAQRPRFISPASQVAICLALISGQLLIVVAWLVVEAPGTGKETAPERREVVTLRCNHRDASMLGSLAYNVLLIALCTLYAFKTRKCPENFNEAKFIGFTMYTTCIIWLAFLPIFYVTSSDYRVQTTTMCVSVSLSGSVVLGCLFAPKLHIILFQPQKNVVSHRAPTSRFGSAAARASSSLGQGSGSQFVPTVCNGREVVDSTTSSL
Metabotropic glutamate receptor 4 (Homo sapiens), sequence (Q14833 whole entry): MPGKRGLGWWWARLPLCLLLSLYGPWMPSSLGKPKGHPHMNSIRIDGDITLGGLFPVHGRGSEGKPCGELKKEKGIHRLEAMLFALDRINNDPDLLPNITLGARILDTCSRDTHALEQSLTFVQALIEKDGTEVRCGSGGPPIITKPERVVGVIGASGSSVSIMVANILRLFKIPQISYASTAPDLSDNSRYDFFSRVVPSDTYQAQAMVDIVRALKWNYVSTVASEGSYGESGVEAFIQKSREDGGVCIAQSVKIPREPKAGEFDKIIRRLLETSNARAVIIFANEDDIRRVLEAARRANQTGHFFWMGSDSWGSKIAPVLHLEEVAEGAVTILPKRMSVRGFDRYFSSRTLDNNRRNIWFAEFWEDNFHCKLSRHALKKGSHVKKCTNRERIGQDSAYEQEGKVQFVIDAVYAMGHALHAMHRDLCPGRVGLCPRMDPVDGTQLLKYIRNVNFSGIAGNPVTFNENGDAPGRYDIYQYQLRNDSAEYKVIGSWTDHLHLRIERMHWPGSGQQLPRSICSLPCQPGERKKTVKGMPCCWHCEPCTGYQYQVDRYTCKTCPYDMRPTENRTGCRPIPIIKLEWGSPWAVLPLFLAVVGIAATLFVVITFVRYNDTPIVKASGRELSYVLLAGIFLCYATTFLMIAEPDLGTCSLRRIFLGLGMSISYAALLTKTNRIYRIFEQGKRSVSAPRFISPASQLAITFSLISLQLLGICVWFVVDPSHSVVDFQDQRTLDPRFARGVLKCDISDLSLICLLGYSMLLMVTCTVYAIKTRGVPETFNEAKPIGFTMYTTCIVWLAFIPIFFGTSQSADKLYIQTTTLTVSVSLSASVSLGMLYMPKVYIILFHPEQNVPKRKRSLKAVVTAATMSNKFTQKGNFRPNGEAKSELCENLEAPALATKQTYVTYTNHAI
Metabotropic glutamate receptor 7 (Homo sapiens), sequence (Q14831 whole entry): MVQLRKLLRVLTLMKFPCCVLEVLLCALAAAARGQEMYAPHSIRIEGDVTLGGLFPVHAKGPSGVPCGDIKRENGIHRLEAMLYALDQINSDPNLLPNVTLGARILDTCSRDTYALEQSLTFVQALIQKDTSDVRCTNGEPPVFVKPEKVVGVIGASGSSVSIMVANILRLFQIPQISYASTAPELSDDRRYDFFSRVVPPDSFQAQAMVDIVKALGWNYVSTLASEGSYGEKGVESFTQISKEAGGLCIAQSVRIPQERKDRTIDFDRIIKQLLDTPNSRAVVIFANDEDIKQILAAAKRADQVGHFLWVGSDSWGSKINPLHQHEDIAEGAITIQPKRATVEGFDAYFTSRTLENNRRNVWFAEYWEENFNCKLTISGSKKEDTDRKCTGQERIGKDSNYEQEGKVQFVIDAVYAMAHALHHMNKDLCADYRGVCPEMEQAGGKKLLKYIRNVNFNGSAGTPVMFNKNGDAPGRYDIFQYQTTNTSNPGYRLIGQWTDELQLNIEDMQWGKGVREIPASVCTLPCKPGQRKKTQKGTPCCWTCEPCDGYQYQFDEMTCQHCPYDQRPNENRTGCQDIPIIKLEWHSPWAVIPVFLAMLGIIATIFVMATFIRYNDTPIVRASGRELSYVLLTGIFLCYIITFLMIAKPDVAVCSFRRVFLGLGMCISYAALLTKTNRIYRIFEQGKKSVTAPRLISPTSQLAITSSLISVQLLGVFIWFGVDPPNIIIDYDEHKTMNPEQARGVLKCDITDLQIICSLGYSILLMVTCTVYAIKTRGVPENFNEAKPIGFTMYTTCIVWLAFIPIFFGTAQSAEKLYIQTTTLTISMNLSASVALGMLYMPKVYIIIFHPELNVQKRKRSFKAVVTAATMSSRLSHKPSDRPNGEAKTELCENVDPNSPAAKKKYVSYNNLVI
Metabotropic glutamate receptor 3 (Homo sapiens), sequence (Q14832 23-879 limits assumed): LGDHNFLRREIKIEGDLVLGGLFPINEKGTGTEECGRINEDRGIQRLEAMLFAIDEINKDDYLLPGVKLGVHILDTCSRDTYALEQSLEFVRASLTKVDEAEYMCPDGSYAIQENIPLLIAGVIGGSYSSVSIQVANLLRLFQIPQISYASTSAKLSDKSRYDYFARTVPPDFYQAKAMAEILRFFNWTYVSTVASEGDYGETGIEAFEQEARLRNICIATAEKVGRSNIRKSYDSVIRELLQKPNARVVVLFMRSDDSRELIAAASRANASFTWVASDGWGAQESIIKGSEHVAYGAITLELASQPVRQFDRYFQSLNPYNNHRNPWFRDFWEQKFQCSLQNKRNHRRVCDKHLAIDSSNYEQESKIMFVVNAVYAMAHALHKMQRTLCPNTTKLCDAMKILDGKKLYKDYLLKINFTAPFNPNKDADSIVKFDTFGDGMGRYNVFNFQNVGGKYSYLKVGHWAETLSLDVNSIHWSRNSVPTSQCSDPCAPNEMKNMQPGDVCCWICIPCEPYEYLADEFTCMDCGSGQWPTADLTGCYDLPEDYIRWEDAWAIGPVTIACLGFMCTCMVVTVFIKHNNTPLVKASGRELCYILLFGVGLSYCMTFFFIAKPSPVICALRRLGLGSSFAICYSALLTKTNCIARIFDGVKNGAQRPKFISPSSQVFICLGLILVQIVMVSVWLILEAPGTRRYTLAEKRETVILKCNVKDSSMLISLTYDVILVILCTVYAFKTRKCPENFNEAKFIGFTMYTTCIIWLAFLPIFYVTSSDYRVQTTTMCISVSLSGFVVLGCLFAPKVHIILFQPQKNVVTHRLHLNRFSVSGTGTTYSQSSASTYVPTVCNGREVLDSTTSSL

SMILES: Cc1cccc(-c2nccc(Sc3ccc(Cl)c(Cl)c3)n2)n1
- Activity [1]: > 25 µM
- Activity [2]: > 25 µM
- Activity [3]: > 25 µM
- Activity [4]: > 25 µM
- IC50 ([5]; read-out: IC50): 390 nM
- Activity [6]: > 25 µM
- Activity [7]: > 25 µM
- Activity [8]: > 25 µM

SMILES: Clc1ccc(Sc2ccnc(-c3ccccn3)n2)cc1
- IC50 ([5]; read-out: IC50): 320 nM

SMILES: Clc1ccc(Sc2cccc(-c3ccccn3)n2)cc1Cl
- IC50 [5]: Not Active

SMILES: Clc1ccc(Nc2ccnc(-c3ccccn3)n2)cc1
- IC50 ([5]; read-out: IC50): > 10000 nM

SMILES: CC(=O)N(c1ccc(Cl)cc1)c1ccnc(-c2ccccn2)n1
- IC50 ([5]; read-out: IC50): > 10000 nM

SMILES: Clc1ccc(Sc2nccc(-c3ccccn3)n2)cc1Cl
- IC50 [5]: Not Active

SMILES: Clc1ccc(Sc2ccnc(-c3cccnc3)n2)cc1
- IC50 ([5]; read-out: IC50): > 10000 nM

SMILES: Fc1ccc(-c2nccc(Sc3ccc(Cl)c(Cl)c3)n2)nc1
- microsomal CLint [9]: 140 µL/min/mg
- Activity [1]: > 25 µM
- Activity [2]: > 25 µM
- Activity [3]: > 25 µM
- microsomal CLint [10]: 90 µL/min/mg
- Activity [4]: > 25 µM
- IC50 ([5]; read-out: IC50): 80 nM
- Activity [6]: > 25 µM
- Activity [7]: > 25 µM
- Activity [8]: > 25 µM

SMILES: Brc1cccc(Sc2ccnc(-c3ccccn3)n2)c1
- IC50 ([5]; read-out: IC50): 2860 nM

SMILES: FC(F)(F)c1ccc(Sc2ccnc(-c3ccccn3)n2)cc1
- IC50 ([5]; read-out: IC50): 210 nM

SMILES: Clc1ccc(Sc2ccnc(-c3ccncc3)n2)cc1
- IC50 ([5]; read-out: IC50): > 10000 nM

SMILES: Clc1ccc(-c2ccnc(-c3ccccn3)n2)cc1Cl
- IC50 [5]: Not Active

SMILES: FC(F)(F)c1cccc(Sc2ccnc(-c3ccccn3)n2)c1
- IC50 ([5]; read-out: IC50): 550 nM

SMILES: Clc1cccc(Sc2ccnc(-c3ccccn3)n2)c1
- IC50 ([5]; read-out: IC50): 620 nM

SMILES: Cc1cccc(Sc2ccnc(-c3ccccn3)n2)c1
- IC50 ([5]; read-out: IC50): 2300 nM

SMILES: Clc1ccc(Cc2ccnc(-c3ccccn3)n2)cc1
- IC50 ([5]; read-out: IC50): > 10000 nM

SMILES: Clc1ccc(Sc2ccnc(-c3ccccn3)n2)cc1Cl
- microsomal CLint [9]: 90 µL/min/mg
- microsomal CLint [10]: 120 µL/min/mg
- IC50 ([5]; read-out: IC50): 90 nM

SMILES: Clc1ccc(Sc2ccnc(-c3ccccn3)c2)cc1Cl
- IC50 ([5]; read-out: IC50): 2370 nM

SMILES: OC(c1ccc(Cl)cc1)c1ccnc(-c2ccccn2)n1 (stereo not given)
- IC50 ([5]; read-out: IC50): > 3000 nM

SMILES: Fc1ccc(Sc2ccnc(-c3ccccn3)n2)cc1F
- IC50 ([5]; read-out: IC50): 1520 nM

SMILES: Cc1cc(Sc2ccc(Cl)cc2)nc(-c2ccccn2)n1
- IC50 ([5]; read-out: IC50): 1250 nM

SMILES: Clc1ccc(Oc2ccnc(-c3ccccn3)n2)cc1
- IC50 ([5]; read-out: IC50): > 10000 nM
